# Test results reported in US20050245563A1 (Millennium Pharmaceuticals, Inc., priority 2003, published 2005).
# Biological target: T1, human Chk1 (GST-Chk1) (Homo sapiens, UniProt O14757)
# T1 construct: made in house; host or cells: insect cells (baculovirus, Bac-to-Bac)
# T1 sequence (O14757 1-476): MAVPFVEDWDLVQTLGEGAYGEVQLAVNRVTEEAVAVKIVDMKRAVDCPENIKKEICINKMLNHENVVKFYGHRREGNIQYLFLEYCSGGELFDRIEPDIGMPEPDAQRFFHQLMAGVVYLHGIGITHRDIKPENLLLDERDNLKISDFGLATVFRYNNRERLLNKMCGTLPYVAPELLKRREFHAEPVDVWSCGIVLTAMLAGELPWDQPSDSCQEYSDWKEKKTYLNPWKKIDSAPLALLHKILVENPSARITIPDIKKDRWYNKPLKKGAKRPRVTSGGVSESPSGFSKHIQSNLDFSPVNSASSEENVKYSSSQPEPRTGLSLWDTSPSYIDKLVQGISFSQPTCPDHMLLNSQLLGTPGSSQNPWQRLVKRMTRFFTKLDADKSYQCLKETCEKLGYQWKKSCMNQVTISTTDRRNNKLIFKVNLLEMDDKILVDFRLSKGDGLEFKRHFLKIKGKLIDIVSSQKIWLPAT
# Assay: Chk1 DELFIA kinase assay (2 nM GST-Chk1, 600 μM ATP)
# Format: biochemical
# Settings: Biotin-GLYRSPSMPEN-amide substrate
# Experimental: Recombinant human Chk1 was expressed as a fusion protein with glutathione S-transferase at the amino-terminus (GST-Chk1) using standard baculovirus vectors and (Bac-to-Bac®) insect cell expression system purchased from GIBCO™ Invitrogen. Recombinant protein expressed in insect cells was purified using glutathione sepharose (Amersham Biotech) using standard procedures described by the manufacturer.
# Chk1 DELFIA® Kinase Assay:
# Assays (25 μL) utilized 2 nM GST-Chk1 containing 10 mM Tris, pH 7.5, 20% glycerol, 50 mM sodium chloride (NaCl), 0.01% Surfact-Amps® 20, 1 μM peptide stubstrate (Biotin-GLYRSPSMPEN-amide) (SEQ ID NO: 3), 01.% BSA, 2 mM DTT, 4% DMSO, 600 μM ATP, 10 MM MgCl2 and reacted for 50 minutes at room temperature. Reactions were terminated with 100 μL of Stop buffer containing 1% BSA, 10 mM Tris, pH 8.0, 150 mM NaCl, 100 mM EDTA. Stopped reactions (100 μL) were transferred to 96 well NeutrAvidin plates (Pierce) to capture the biotin-peptide substrate during a 30 minute room temperature incubation. Wells were washed and reacted with 100 μL PerkinElmer Wallac Assay Buffer containing 21.5 ng/ml anti-phospho-Ser216-Cdc25c rabbit polyclonal antibody from Cell Signaling Technology (Beverly, Mass.) and 292 ng/ml europium labeled anti-rabbit-IgG for 1 hour at room temperature. Wells were washed and europium released from the bound antibody by addition of Enhancement Solution (100 μL) (PerkinElmer Wallac) and detected using a Perkin Elmer Wallac Envison™ 2100 multilabel reader using standard manufacturer settings.
row,Compound,IC50
1,"Cc1[nH]nc2c1c(=O)n(C[C@H]1CCCNC1)c1ccc(Cl)cc21 [Example 225, 8-Chloro-3-methyl-5S-piperidin-3-ylmethyl-2,5-dihydro-pyrazolo[4,3-c]quinolin-4-one]",< 1 µM
2,"COCCc1[nH]nc2c1c(=O)n(C[C@@H]1CCCNC1)c1ccc(Cl)cc21 [Example 226, 8-Chloro-3-(2-methoxy-ethyl)-5R-piperidin-3-ylmethyl-2,5-dihydro-pyrazolo[4,3-c]quinolin-4-one]",< 1 µM
3,"COCCc1[nH]nc2c1c(=O)n(C[C@H]1CCCNC1)c1ccc(Cl)cc21 [Example 227, 8-Chloro-3-(2-methoxy-ethyl)-5S-piperidin-3-ylmethyl-2,5-dihydro-pyrazolo[4,3-c]quinolin-4-one]",< 1 µM
4,"Cc1[nH]nc2c1c(=O)n(CC1CNC1)c1ccc(Cl)cc21 [Example 228, 5-Azetidin-3-ylmethyl-8-chloro-3-methyl-2,5-dihydro-pyrazolo[4,3-c]quinolin-4-one]",< 1 µM
5,"CNCCCn1c(=O)c2c(C)[nH]nc2c2cc(I)ccc21 [Example 234, 8-Iodo-3-methyl-5-(3-methylamino-propyl)-2,5-dihydro-pyrazolo[4,3-c]quinolin-4-one]",< 1 µM
6,"CCCNCCCn1c(=O)c2c(C)[nH]nc2c2cc(Cl)ccc21 [Example 239, 8-Chloro-3-methyl-5-(3-propylamino-propyl)-2,5-dihydro-pyrazolo[4,3-c]quinolin-4-one]",< 1 µM
7,"Cc1[nH]nc2c1c(=O)n(CCCNCc1ccc[nH]1)c1ccc(Cl)cc21 [Example 243, 8-Chloro-3-methyl-5-{3-[(1H-pyrrol-2-ylmethyl)-amino]-propyl}2,5-dihydro-pyrazolo[4,3-c]quinolin-4-one]",< 1 µM
8,"Cc1[nH]nc2c1c(=O)n(CCCNCc1ncc[nH]1)c1ccc(Cl)cc21 [Example 244, 8-Chloro-5-{3-[(1H-imidazol-2-ylmethyl)-amino]-propyl}-3-methyl-2,5-dihydro-pyrazolo[4,3-c]quinolin-4-one]",< 1 µM
9,"CNCC(O)Cn1c(=O)c2c(C)[nH]nc2c2cc(Cl)ccc21 (stereo not drawn) [Example 247, 8-Chloro-5-(2-hydroxy-3-methylamino-propyl)-3-methyl-2,5-dihydro-pyrazolo[4,3-c]quinolin-4-one]",< 1 µM
10,"CCNCC(O)CCn1c(=O)c2c(C)[nH]nc2c2cc(Cl)ccc21 (stereo not drawn) [Example 248, 8-Chloro-5-(4-ethylamino-3-hydroxy-butyl)-3-methyl-2,5-dihydro-pyrazolo[4,3-c]quinolin-4-one]",< 1 µM
11,"CNCC(O)CCn1c(=O)c2c(C)[nH]nc2c2cc(Cl)ccc21 (stereo not drawn) [Example 249, 8-Chloro-5-(3-hydroxy-4-methylamino-butyl)-3-methyl-2,5-dihydro-pyrazolo[4,3-c]quinolin-4-one]",< 1 µM
12,"CCCNCC(O)CCn1c(=O)c2c(C)[nH]nc2c2cc(Cl)ccc21 (stereo not drawn) [Example 250, 8-Chloro-5-(3-hydroxy-4-propylamino-butyl)-3-methyl-2,5-dihydro-pyrazolo[4,3-c]quinolin-4-one]",< 1 µM
13,"CCOc1ccc2c(c1)c1n[nH]c(C)c1c(=O)n2CCCN [Example 256, 5-(3-Amino-propyl)-8-ethoxy-3methyl-2,5-dihydro-pyrazolo[4,3-c]quinolin-4-one]",< 1 µM
14,"CCCOc1ccc2c(c1)c1n[nH]c(C)c1c(=O)n2CCCN [Example 258, 5-(3-Amino-propyl)-3-methyl-8-propoxy-2,5-dihydro-pyrazolo[4,3-c]quinolin-4-one]",< 1 µM
15,"Cc1[nH]nc2c1c(=O)n(CCCN)c1ccc(OCC(C)C)cc21 [Example 259, 5-(3-Amino-propyl)-8-isobutoxy-3-methyl-2,5-dihydro-pyrazolo[4,3-c]quinolin-4-one]",< 1 µM
16,"CC(=O)Nc1ccc2c(c1)c1n[nH]c(C)c1c(=O)n2CCCN [Example 261, N-[5-(3-Amino-propyl)-3-methyl-4-oxo-4,5-dihydro-2H-pyrazolo[4,3-c]quinolin-8-yl]-acetamide]",< 1 µM
17,"Cc1[nH]nc2c1c(=O)n(CCCN)c1ccc(NC(=O)CN(C)C)cc21 [Example 264, N-[5-(3-aminopropyl)-3-methyl-4-oxo4,5-dihydro-2H-pyrazolo[4,3-c]quinolin-8-yl]-2-dimethylaminoacetamide]",< 1 µM
18,"COC(=O)/C(=C/c1ccc2c(c1)c1n[nH]c(C)c1c(=O)n2CCCN)NC(C)=O [Example 270, 2-Acetylamino-3-[5-(3-amino-propyl)-3-methyl-4-oxo-4,5-dihydro-2H-pyrazolo[4,3-c]quinolin-8-yl]-acrylic acid methyl ester]",< 1 µM
19,"Cc1[nH]nc2c1c(=O)n(CCCN)c1ccc(C#N)cc21 [Example 271, 5-(3-Amino-propyl)-3-methyl-4-oxo-4,5-dihydro-2H-pyrazolo[4,3-c]quinoline-8-carbonitrile]",< 1 µM

# Second part, the compound after the results:
row,IC50,Compound
1,< 1 µM,"Cc1[nH]nc2c1c(=O)n(CCC(C)(C)N)c1ccc(Cl)cc21 [Example 229, 5-(3-Amino-3-methyl-butyl)-8-chloro-3-methyl-2,5-dihydro-pyrazolo[4,3-c]quinolin-4-one]"
2,< 1 µM,"Cc1[nH]nc2c1c(=O)n(CC(=O)C1CCCN1)c1ccc(Cl)cc21 (stereo not drawn) [Example 230, 8-Chloro-3-methyl-5-(2-oxo-2-pyrrolidin-2-yl-ethyl)-2,5-dihydro-pyrazolo[4,3-c]quinolin-4-one]"
3,< 1 µM,"CNCCCn1c(=O)c2c(C)[nH]nc2c2cc(Cl)ccc21 [Example 231, 8-Chloro-3-methyl-5-(3-methylamino-propyl)-2,5-dihydro-pyrazolo[4,3-c]quinolin-4-one]"
4,< 1 µM,"CNCCCn1c(=O)c2c(C)[nH]nc2c2cc(C)ccc21 [Example 235, 3,8-Dimethyl-5-(3-methylamino-propyl)-2,5-dihydro-pyrazolo[4,3-c]quinolin-4-one]"
5,< 1 µM,"CNCCCn1c(=O)c2c(CCOC)[nH]nc2c2cc(C)ccc21 [Example 236, 3-(2-Methoxy-ethyl)-8-methyl-5-(3-methylamino-propyl)-2,5-dihydro-pyrazolo[4,3-c]quinolin-4-one]"
6,< 1 µM,"CNCCCn1c(=O)c2c(CCOC)[nH]nc2c2cc(Cl)ccc21 [Example 237, 8-Chloro-3-(2-methoxy-ethyl)-5-(3-methylamino-propyl)-2,5-dihydro-pyrazolo[4,3-c]quinolin-4-one]"
7,< 1 µM,"CCNCCCn1c(=O)c2c(C)[nH]nc2c2cc(Cl)ccc21 [Example 238, 8-Chloro-5-(3-ethylamino-propyl)-3-methyl-2,5-dihydro-pyrazolo[4,3-c]quinolin-4-one]"
8,< 1 µM,"Cc1[nH]nc2c1c(=O)n(CCCNCc1cccs1)c1ccc(Cl)cc21 [Example 242, 8-Chloro-3-methyl-5-{3-[(thiophen-2-ylmethyl)-amino]-propyl}-2,5-dihydro-pyrazolo[4,3-c]quinolin-4-one]"
9,< 1 µM,"Cc1[nH]nc2c1c(=O)n(CC(O)C1CCCN1)c1ccc(Cl)cc21 (stereo not drawn) [Example 246, 8-Chloro-5-(2-hydroxy-2-pyrrolidin-2-yl-ethyl)-3-methyl-2,5-dihydro-pyrazolo[4,3-c]quinolin-4-one]"
10,< 1 µM,"Cc1[nH]nc2c1c(=O)n(CCCN)c1ccc(OCCCN)cc21 [Example 255, 8-(3-Amino-propoxy)-5-(3-amino-propyl)-3-methyl-2,5-dihydro-pyrazolo[4,3-c]quinolin-4-one]"
11,< 1 µM,"Cc1[nH]nc2c1c(=O)n(CCCN)c1ccc(OCc3ccccc3)cc21 [Example 257, 5-(3-Amino-propyl)-8-benzyloxy-3-methyl-2,5-dihydro-pyrazolo[4,3-c]quinolin-4-one]"
12,< 1 µM,"Cc1[nH]nc2c1c(=O)n(CCCN)c1ccc(N)cc21 [Example 260, 8-Amino-5-(3-amino-propyl)-3-methyl-2,5-dihydro-pyrazolo[4,3-c]quinolin-4-one]"
13,< 1 µM,"Cc1[nH]nc2c1c(=O)n(CCCN)c1ccc(NC(=O)[C@@H]3CCCN3)cc21 [Example 262, Pyrrolidine-2S-carboxylic acid [5-(3-amino-propyl)-3-methyl-4-oxo-4,5-dihydro-2H-pyrazolo[4,3-c]quinolin-8-yl]-amide]"
14,< 1 µM,"Cc1[nH]nc2c1c(=O)n(CCCN)c1ccc(NC(=O)[C@H]3CCCN3)cc21 [Example 263, Pyrrolidine-2R-carboxylic acid [5-(3-amino-propyl)-3-methyl-4-oxo-4,5-dihydro-2H-pyrazolo[4,3-c]quinolin-8-yl]-amide]"
